Measured values taken from patent publication US8575186B2, “Epiminocycloalkyl[b] indole derivatives as serotonin sub-type 6 (5-HT6) modulators and uses thereof” (Albany Molecular Research, Inc., priority 2009, dated 2013).
Read-outs that look alike come from different tables or passages of the source.

Tests used:
human 5-HT6 receptor = human 5-HT6 receptor (Homo sapiens (Human), UniProt P50406); assay: radioligand binding assay (SPA format), [N-methyl-3H]-LSD; settings: read-out: human 5HT6 Ki, human 5-HT6 receptor membranes, 10 nM [3H]-LSD
Chain of human 5-HT6 receptor (P50406 whole entry): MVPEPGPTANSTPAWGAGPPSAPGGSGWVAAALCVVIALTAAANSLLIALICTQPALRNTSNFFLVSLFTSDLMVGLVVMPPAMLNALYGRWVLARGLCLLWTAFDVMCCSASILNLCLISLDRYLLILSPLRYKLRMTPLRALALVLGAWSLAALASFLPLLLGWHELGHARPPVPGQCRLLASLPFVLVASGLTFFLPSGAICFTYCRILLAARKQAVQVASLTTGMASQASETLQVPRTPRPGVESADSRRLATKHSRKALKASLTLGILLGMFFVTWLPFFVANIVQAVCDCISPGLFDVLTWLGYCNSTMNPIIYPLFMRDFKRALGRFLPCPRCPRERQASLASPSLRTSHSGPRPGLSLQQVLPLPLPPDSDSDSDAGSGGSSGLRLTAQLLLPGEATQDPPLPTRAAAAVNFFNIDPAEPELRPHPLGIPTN

Structure (SMILES) | Ki (human 5-HT6 receptor) | melting point | Ki (human 5-HT6 receptor; hydrochloride)
Cl.Cn1c2c(c3cc(S(=O)(=O)c4ccc(F)cc4)ccc31)C1CCC(C2)N1 (stereo not shown) [Example 28, 2-(4-Fluorophenyl)sulfonyl-5-methyl-5,6,7,8,9,10-hexahydro-7,10-epiminocyclohepta[b]indole hydrochloride] | 60 nM | 210 to 214 °C | –
Cl.Cn1c2c(c3cc(S(=O)(=O)c4ccc(C#N)cc4)ccc31)C1CCC(C2)N1 (stereo not shown) [Example 30, 2-(4-Cyanophenyl)sulfonyl-5-methyl-5,6,7,8,9,10-hexahydro-7,10-epiminocyclohepta[b]indole hydrochloride] | – | 216 to 218 °C | 410 nM
COc1ccc(S(=O)(=O)c2ccc3c(c2)c2c(n3C)CC3CCC2N3)cc1.Cl (stereo not shown) [Example 31, 2-(4-Methoxyphenyl)sulfonyl-5-methyl-5,6,7,8,9,10-hexahydro-7,10-epiminocyclohepta[b]indole hydrochloride] | 44 nM | 210 to 212 °C | –
Cl.Cn1c2c(c3cc(S(=O)(=O)c4ccc(O)cc4)ccc31)C1CCC(C2)N1 (stereo not shown) [Example 32, 2-(4-Hydroxyphenyl)sulfonyl-5-methyl-5,6,7,8,9,10-hexahydro-7,10-epiminocyclohepta[b]indole hydrochloride] | 11 nM | 210 to 212 °C | –
Cl.Cn1c2c(c3cc(S(=O)(=O)c4cccc(F)c4)ccc31)C1CCC(C2)N1 (stereo not shown) [Example 35, 2-(3-Fluorophenyl)sulfonyl-5-methyl-5,6,7,8,9,10-hexahydro-7,10-epiminocyclohepta[b]indole hydrochloride] | 4.2 nM | 240 to 245 °C | –
Cc1cccc(S(=O)(=O)c2ccc3c(c2)c2c(n3C)CC3CCC2N3)c1.Cl (stereo not shown) [Example 37, 2-(3-Methylphenyl)sulfonyl-5-methyl-5,6,7,8,9,10-hexahydro-7,10-epiminocyclohepta[b]indole hydrochloride] | 3.7 nM | 194 to 196 °C | –
Cl.Cn1c2c(c3cc(S(=O)(=O)c4cccc(OC(F)F)c4)ccc31)C1CCC(C2)N1 (stereo not shown) [Example 40, 2-(3-Difluoromethoxyphenyl)sulfonyl-5-methyl-5,6,7,8,9,10-hexahydro-7,10-epiminocyclohepta[b]indole hydrochloride] | 5.8 nM | 186 to 190 °C (dec.) | –
COc1cccc(S(=O)(=O)c2ccc3c(c2)c2c(n3C)CC3CCC2N3)c1.Cl (stereo not shown) [Example 41, 2-(3-Methoxyphenyl)sulfonyl-5-methyl-5,6,7,8,9,10-hexahydro-7,10-epiminocyclohepta[b]indole hydrochloride] | 17 nM | 186 to 190 °C | –
Cl.Cn1c2c(c3cc(S(=O)(=O)c4cccc(O)c4)ccc31)C1CCC(C2)N1 (stereo not shown) [Example 42, 2-(3-Hydroxyphenyl)sulfonyl-5-methyl-5,6,7,8,9,10-hexahydro-7,10-epiminocyclohepta[b]indole hydrochloride] | 11 nM | 208 to 212 °C | –
Cl.Cn1c2c(c3cc(S(=O)(=O)c4cccc(N)c4)ccc31)C1CCC(C2)N1 (stereo not shown) [Example 44, 2-(3-Aminophenyl)sulfonyl-5-methyl-5,6,7,8,9,10-hexahydro-7,10-epiminocyclohepta[b]indole hydrochloride] | 6.3 nM | 220 to 222 °C | –
CNc1cccc(S(=O)(=O)c2ccc3c(c2)c2c(n3C)CC3CCC2N3)c1.Cl (stereo not shown) [Example 46, 2-[(3-N-Methylamino)phenyl]sulfonyl-5-methyl-5,6,7,8,9,10-hexahydro-7,10-epiminocyclohepta[b]indole hydrochloride] | 6.5 nM | 208 to 212 °C (dec.) | –
CC(C)Nc1cccc(S(=O)(=O)c2ccc3c(c2)c2c(n3C)CC3CCC2N3)c1.Cl (stereo not shown) [Example 47, 2-[(3-N-Isopropylamino)phenyl]sulfonyl-5-methyl-5,6,7,8,9,10-hexahydro-7,10-epiminocyclohepta[b]indole hydrochloride] | 11 nM | 208 to 212 °C (dec.) | –
Cl.Cn1c2c(c3cc(S(=O)(=O)c4cccc5ccccc45)ccc31)C1CCC(C2)N1 (stereo not shown) [Example 49, 2-(1-Napthyl)sulfonyl-5-methyl-5,6,7,8,9,10-hexahydro-7,10-epiminocyclohepta[b]indole hydrochloride] | 1.4 nM | 229 to 231 °C | –
Cl.Cn1c2c(c3cc(S(=O)(=O)c4ccc(Cl)cc4)ccc31)C1CCC(C2)N1 (stereo not shown) [Example 51, 2-(4-Chlorophenyl)sulfonyl-5-methyl-5,6,7,8,9,10-hexahydro-7,10-epiminocyclohepta[b]indole hydrochloride] | 37 nM | 310 to 320 °C | –
Cl.Cn1c2c(c3cc(S(=O)(=O)c4cccc(-c5ccccc5)c4)ccc31)C1CCC(C2)N1 (stereo not shown) [Example 57, 2-[(3-Phenyl)-phenyl]sulfonyl-5-methyl-5,6,7,8,9,10-hexahydro-7,10-epiminocyclohepta[b]indole hydrochloride] | – | 230 to 235 °C (dec.) | –
Cl.Cn1c2c(c3cc(S(=O)(=O)n4ccc5cc(F)ccc54)ccc31)C1CCC(C2)N1 (stereo not shown) [Example 63, 2-[1-(5-Fluoro)-indole]sulfonyl-5-methyl-5,6,7,8,9,10-hexahydro-7,10-epiminocyclohepta[b]indole hydrochloride] | – | 218 to 220 °C | –
COc1ccc2c(ccn2S(=O)(=O)c2ccc3c(c2)c2c(n3C)CC3CCC2N3)c1.Cl (stereo not shown) [Example 66, 2-[1-(5-Methoxy)-indole]sulfonyl-5-methyl-5,6,7,8,9,10-hexahydro-7,10-epiminocyclohepta[b]indole hydrochloride] | – | 206 to 209 °C | –
Cc1cc(S(=O)(=O)c2cccc(F)c2)cc2c3c(n(C)c12)CC1CCC3N1.Cl (stereo not shown) [Example 72, 2-(3-Fluorophenyl)sulfonyl-4,5-dimethyl-5,6,7,8,9,10-hexahydro-7,10-epiminocyclohepta[b]indole hydrochloride] | – | 254 to 256 °C | –
Cc1cc(S(=O)(=O)c2cccc(Cl)c2)cc2c3c(n(C)c12)CC1CCC3N1.Cl (stereo not shown) [Example 73, 2-(3-Chloro-phenyl)sulfonyl-4,5-dimethyl-5,6,7,8,9,10-hexahydro-7,10-epiminocyclohepta[b]indole hydrochloride] | – | 227 to 229 °C | –
Cc1cccc(S(=O)(=O)c2cc(C)c3c(c2)c2c(n3C)CC3CCC2N3)c1.Cl (stereo not shown) [Example 74, 2-(3-Methyl-phenyl)sulfonyl-4,5-dimethyl-5,6,7,8,9,10-hexahydro-7,10-epiminocyclohepta[b]indole hydrochloride] | – | 228 to 230 °C | –
Cc1cc(S(=O)(=O)n2ccc3ccccc32)cc2c3c(n(C)c12)CC1CCC3N1.Cl (stereo not shown) [Example 79, 2-[1-Indolesulfonyl]-4,5-dimethyl-5,6,7,8,9,10-hexahydro-7,10-epiminocyclohepta[b]indole] | – | 225 to 228 °C | –
COc1cc(S(=O)(=O)c2ccccc2)cc2c3c(n(C)c12)CC1CCC3N1.Cl (stereo not shown) [Example 83, 2-Phenylsulfonyl-4-methoxy-5-methyl-5,6,7,8,9,10-hexahydro-7,10-epiminocyclohepta[b]indole hydrochloride] | – | 175 to 177 °C | –
CC(C)Oc1cc(S(=O)(=O)c2ccccc2)cc2c3c(n(C)c12)CC1CCC3N1.Cl (stereo not shown) [Example 85, 2-Phenylsulfonyl-4-isopropoxy-5-methyl-5,6,7,8,9,10-hexahydro-7,10-epiminocyclohepta[b]indole hydrochloride] | – | 187 to 189 °C | –
